Source: article PMC8541546, “Identification of HLA-A2-Restricted Mutant Epitopes from Neoantigens of Esophageal Squamous Cell Carcinoma” (Vaccines, 2021)

Tests used:
HLA-A*0201 molecule = biological target: T1, HLA-A*0201 molecule (Homo sapiens, UniProt P04439, D140Y/D185E/D98H/E176V/E277Q/G131W/G231S/I119V/I121R/I166T/I218V/L300P/L318F/N151K/N90K/P208A/P217A/Q86G/Q94H/R138H/R169H/T345S); assay: T2A2 cell-binding assay; settings: T2A2 cells; FI = (MFI of peptide - MFI of control without peptide)/MFI of control without peptide; anti-HLA-A2 BB7.2, flow cytometry; FI > 1 = high binding affinity
T1 construct: T2A2 cells (TAP-deficient HLA-A2 molecules overexpressing, cultured in IMDM medium); host or cells: T2A2 cells
Procedure: The binding affinity of neoepitope to the MHC molecule and the stable neoepitope/MHC complex are critical for inducing T cell immune response, so we first performed a T2A2 cell-binding assay and stabilization assay. The T2A2 cell-binding assay was measured as in our previous study. The binding affinity was computed as follows: fluorescence index (FI) = (mean fluorescence intensity (MFI) of peptide group-MFI of the dissolved buffer without peptide group)/MFI of the dissolved buffer without peptide group.

[1] = tested on: peptide-pulsed T2A2 cells; assay: IFN-γ intracellular staining of peptide-induced T cells from donor PBMCs; assay type: cell-based, human; settings: PBMCs of HLA-A2+ donors B–F, DCs pulsed with 10 μg/mL peptide, three rounds
Procedure: (§1) DCs involve and play an important role in initiating CD8^+ T cell response. Consequently, ten HLA-A2^+ healthy donors’ PBMCs were isolated, autologous DCs were generated, and CTLs were induced according to the procedure described previously. In brief, PBMCs were seeded at a density of 5 × 10^6 cells/well in a 6-well plate, and after 3 h, the non-adherent cells were removed and cryopreserved for future incubation with mature autologous DCs. Differentiation of the adherent cells into dendritic cells was induced by GM-CSF (100 ng/mL, #300-03, PeproTech, Rocky Hill, NJ, USA) and IL-4 (100 ng/mL; #200-04, PeproTech, USA), with replenishment every 2 days. On day 5, maturation of DCs was induced using 100 ng/mL LPS (#L4516, Sigma-Aldrich, St. Louis, MO, USA), and maturation was checked on day 8 by flow cytometry (BD FACSCelesta™) using markers for anti-human HLA-DR, anti-human CD80, and anti-human CD86. Then, mature DCs (1 × 10^5) were pulsed with each 10 μg /mL individual peptide or no peptides (control) for 2 h at 37 °C. Next, peptide-pulsed DCs were used to prime the previously cryopreserved autologous peripheral blood lymphocytes (PBLs) at a DC/PBL ratio of 1:10 using complete RPMI-1640 media supplemented with 100 IU/mL rhIL-2 (#200-02, PeproTech, USA) and 10 ng/mL rhIL-7 (#200-07, PeproTech, USA). Half of the feeding medium was replenished every 2 days. After 7 days, PBLs were restimulated with freshly pulsed autologous DCs every 7 days.
When target cells were peptide-pulsed T2A2 cells (MUT peptide or its corresponding WT peptide), peptide-specific T cells (from HLA-A2^+ healthy donors B–F) stimulated by MUT peptides were co-cultured with these cells in the presence of BFA for 5 h. Then T cells were marked by anti-human CD3 and anti-human CD8α monoclonal antibody. Thirty minutes later, cells were fixed by fixation buffer (Thermo Scientific, Waltham, MA, USA) for thirty minutes and washed by permeabilization buffer (Thermo Scientific, USA). Permeabilized T cells were marked by anti-human IFN-γ monoclonal antibody.

[2] = biological target: T2, peptide/HLA-A*0201 complex (Homo sapiens, UniProt P04439, D140Y/D185E/D98H/E176V/E277Q/G131W/G231S/I119V/I121R/I166T/I218V/L300P/L318F/N151K/N90K/P208A/P217A/Q86G/Q94H/R138H/R169H/T345S); assay: peptide/MHC complex stabilization assay on T2A2 cells; assay type: binding; settings: T2A2 cells pulsed with 50 μg/mL peptide and 3 μg/mL β2-M 18 h, BFA 1 h; MFI at 0, 2, 4, 6 h; time of half losing MFI of 0 h
T2 construct: T2A2 cells (TAP-deficient HLA-A2 molecules overexpressing, cultured in IMDM medium); β2-M from Merck; host or cells: T2A2 cells
Procedure: For the stabilization test, T2A2 cells were pulsed with 50 μg/mL mutant peptide and 3 μg/mL β2-Microglobulin (β2-M, Merck, Kenilworth, NJ, USA) in IMDM (serum-free) medium for 18 h. After three times washing, free peptides were removed and brefeldin A (BFA, 10 μg/mL, BD Bioscience, San Diego, CA, USA) was added. BFA was removed after 1 h impeding, and the cells were incubated for additional time. Finally, T2A2 was marked with anti-human HLA-A2 PE-Cyanine7 for 30 min, then analyzed by FACS Calibur (BD Bioscience, USA). MFI of 0 h was set as 100%, and the time of half losing MFI of 0 h defined the dissociation complex 50 (DC50). DC50 was computed as follows: (MFI of 0 h-MFI of (2, 4, or 6 h))/MFI of 0 h × 100%.

[3] = tested on: peptide-pulsed T2A2 cells; assay: Cytotoxicity assay of peptide-induced T cells from donor PBMCs; assay type: cell-based, human; settings: donors B–F; E/T 12.5:1, 25:1, 50:1; T2A2 loaded with 50 μg/mL peptide
Procedure: as §1
The cytotoxicity of peptide-specific T cells stimulated by mutant peptides was tested by using Cell Trace Far Red (Thermo Scientific, USA). Transfected cells were suspended in PBS (1 × 10^6 cells/mL) and labelled with Cell Trace Far Red as follows: Control target cells and test target cells were marked by 50 μM and 1 mM Cell Trace Far Red, respectively, at 37 °C for 20 min, protected from light. After incubation, target cells were washed with complete media at 37 °C for 5 min. […] Subsequently, test target cells were mixed with control target cells in a tube, washed once, and analyzed by flow cytometry. Specific lysis (%) = (numbers of control target cells—numbers of test target cells)/numbers of control target cells × 100% [28, 29], where, for tumor cells, the control target cells refer to KYSE140-WT cells marked with 50 μM Cell Trace Far Red, and the test target cell refers to KYSE140-WT or KYSE140-MUT cells marked with 1 mM Cell Trace Far Red, respectively (peptide-specific T cells generated from donors G–K’s PBMCs in vitro or generated from spleen lymphocytes of HLA-A2.1/K^b Tg mice in vivo). Additionally, for T2A2 target cells, T2A2 cells unpulsed and marked with 50 μM Cell Trace Far Red were used as the control target cells, while T2A2 cells loaded with MUT peptides or the corresponding WT peptides (50 μg/mL) or T2A2 cells only were marked with 1 mM Cell Trace Far Red and were used as test target cells (peptide-specific T cells stimulated from donors B–F’s PBMCs).

GLFQCGTGL [LRP1B-R3362L]
FI (fluorescence index) (HLA-A*0201 molecule): 0.09

ILGEEAPRL [KMT2D-F4722L]
FI (fluorescence index) (HLA-A*0201 molecule): 0.29

FLIQTEQKL [SYNE1-V7402I]
IFN-γ release of MUT peptide-induced T cells, MUT versus WT peptide-loaded T2A2 cells [1]: cannot effectively distinguish T2A2 cells loaded with WT or MUT peptides | FI (fluorescence index) (HLA-A*0201 molecule): 1.27 | DC50 (dissociation complex 50) [2]: >6 h | lysis cytotoxicity of MUT peptide-induced T cells on T2A2 cells [3]: strong cytotoxicity activity

SMGDALDSI [MUC16-A4579D]
FI (fluorescence index) (HLA-A*0201 molecule): 1.35 | DC50 (dissociation complex 50) [2]: <2 h

KLLSLLEVL [SYNE1-A65S]
FI (fluorescence index) (HLA-A*0201 molecule): 0.08

TILEELNVV [SYNE1-N4342I]
FI (fluorescence index) (HLA-A*0201 molecule): 1.81 | DC50 (dissociation complex 50) [2]: <4 h

ALNKMFFQL [TP53-C135F]
FI (fluorescence index) (HLA-A*0201 molecule): 0.12

FLTATRQEI [DNAH5-M4495T]
FI (fluorescence index) (HLA-A*0201 molecule): 0.21

ILIGETIKI [COX-2 321–329, reference compound]
FI (fluorescence index) (HLA-A*0201 molecule): 2.12 | DC50 (dissociation complex 50) [2]: >6 h

ALDMCVKFL [LRP1B-P3707L]
FI (fluorescence index) (HLA-A*0201 molecule): 0.37

QLQAQLQGV [KMT2D-R4198Q]
FI (fluorescence index) (HLA-A*0201 molecule): 1.12 | DC50 (dissociation complex 50) [2]: <2 h

YLLTPNGRV [LRP1B-C2479Y]
FI (fluorescence index) (HLA-A*0201 molecule): 0.39

SIPSFPLPV [MUC16-S5361F]
FI (fluorescence index) (HLA-A*0201 molecule): 2.25 | DC50 (dissociation complex 50) [2]: <2 h

LMSRIPHDV [MUC16-Q5024H]
FI (fluorescence index) (HLA-A*0201 molecule): 0.14

ILQDGFLYV [ABCA13-E1359Q]
IFN-γ release of MUT peptide-induced T cells, MUT versus WT peptide-loaded T2A2 cells [1]: cannot effectively distinguish T2A2 cells loaded with WT or MUT peptides | FI (fluorescence index) (HLA-A*0201 molecule): 1.56 | DC50 (dissociation complex 50) [2]: >6 h | lysis cytotoxicity of MUT peptide-induced T cells on T2A2 cells [3]: strong cytotoxicity activity

RMQRVLSHV [DNAH5-L4406H]
FI (fluorescence index) (HLA-A*0201 molecule): 0.30

TMSERSTLL [MUC17-T3809M]
FI (fluorescence index) (HLA-A*0201 molecule): 0.12

VISDYKYKV [NEB-D3282V]
FI (fluorescence index) (HLA-A*0201 molecule): 0.09

GLPNDDLYI [DNAH5-S3587Y]
FI (fluorescence index) (HLA-A*0201 molecule): 0.68

YMCNSSCMV [TP53-G244V]
FI (fluorescence index) (HLA-A*0201 molecule): 0.49

ALPQHLIRV [TP53-P190L]
IFN-γ release of MUT peptide-induced T cells, MUT versus WT peptide-loaded T2A2 cells [1]: cannot effectively distinguish T2A2 cells loaded with WT or MUT peptides | FI (fluorescence index) (HLA-A*0201 molecule): 1.26 | DC50 (dissociation complex 50) [2]: >4 h | lysis cytotoxicity of MUT peptide-induced T cells on T2A2 cells [3]: strong cytotoxicity activity

RMHDVTTPL [NOTCH1-G1995V]
FI (fluorescence index) (HLA-A*0201 molecule): 0.42

LLGRNSFEL [TP53-V272L]
FI (fluorescence index) (HLA-A*0201 molecule): 0.53

FMNELMDII [DNAH5-D4110N]
FI (fluorescence index) (HLA-A*0201 molecule): 0.38

NLHSINDFL [ABCA13-D1303H]
FI (fluorescence index) (HLA-A*0201 molecule): 0.24

LLARNSFEV [TP53-G266A]
FI (fluorescence index) (HLA-A*0201 molecule): 0.16

TMPVVSSEV [MUC17-A2414V]
FI (fluorescence index) (HLA-A*0201 molecule): 1.54 | DC50 (dissociation complex 50) [2]: <4 h

GMLSPVDFL [NOTCH1-S2202F]
FI (fluorescence index) (HLA-A*0201 molecule): 0.13

VLDDSETTI [MUC16-A9832D]
IFN-γ release of MUT peptide-induced T cells, MUT versus WT peptide-loaded T2A2 cells [1]: cannot effectively distinguish T2A2 cells loaded with WT or MUT peptides | FI (fluorescence index) (HLA-A*0201 molecule): 3.56 | DC50 (dissociation complex 50) [2]: >6 h | lysis cytotoxicity of MUT peptide-induced T cells on T2A2 cells [3]: strong cytotoxicity activity

TLTATVNIV [PCDH15-S628L]
FI (fluorescence index) (HLA-A*0201 molecule): 0.43

YLPDHHEEL [SYNE1-S7628Y]
FI (fluorescence index) (HLA-A*0201 molecule): 1.67 | DC50 (dissociation complex 50) [2]: <2 h

ILWRQDTDL [NFE2L2-I28T]
FI (fluorescence index) (HLA-A*0201 molecule): 0.79

CLRDYQPFL [LRP2-D1744Y]
FI (fluorescence index) (HLA-A*0201 molecule): 0.20
